From patent US7700592B2, “α2C adrenoreceptor agonists” (Schering Corporation, priority 2005, dated 2010)

Molecular target: T1, α2C receptor (Homo sapiens, UniProt P18825)
T1 sequence (P18825 1-462): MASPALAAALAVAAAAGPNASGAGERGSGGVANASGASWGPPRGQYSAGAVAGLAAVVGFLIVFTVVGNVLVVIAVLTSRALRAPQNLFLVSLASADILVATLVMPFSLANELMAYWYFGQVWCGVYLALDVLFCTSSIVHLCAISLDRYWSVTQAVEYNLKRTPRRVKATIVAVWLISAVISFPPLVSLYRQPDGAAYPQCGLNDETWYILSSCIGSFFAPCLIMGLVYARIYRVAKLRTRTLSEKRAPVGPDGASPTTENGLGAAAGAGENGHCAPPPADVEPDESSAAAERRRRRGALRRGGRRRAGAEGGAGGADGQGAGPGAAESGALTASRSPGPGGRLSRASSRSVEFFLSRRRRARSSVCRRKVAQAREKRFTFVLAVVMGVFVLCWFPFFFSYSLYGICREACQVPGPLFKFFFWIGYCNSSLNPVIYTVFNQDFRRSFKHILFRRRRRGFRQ
Test: GTPγS assay, efficacy agonist activity (Emax) for α2C
Format: biochemical
Conditions: active agonist = efficacy at α2C ≧30% Emax; functionally selective = additionally efficacy at α2A ≦30% Emax (GTPγS assay)
Text: For the purposes of this present invention, a compound is defined to be an active agonist of the α2C receptor subtype if the compound's efficacy at the α2C receptor is ≧30% Emax (GTPγS assay). A compound is a functionally selective agonist of the α2C receptor subtype over the α2A receptor subtype if the compound's efficacy at the α2C receptor is ≧30% Emax (GTPγS assay) and its efficacy at the α2A receptor is ≦30% Emax (GTPγS assay).
Efficacy agonist activity values (Emax, GTPγS assay) for α2C were determined by following the general procedure detailed by Umland et al (“Receptor reserve analysis of the human α2c-adrenoceptor using [^35S]GTPγS and cAMP functional assays” European Journal of Pharmacology 2001, 411, 211-221). For the purposes of the present invention, a compound is defined to be an active agonist of the α2C receptor subtype if the compound's efficacy at the α2C receptor is ≧30% Emax (GTPγS assay). A compound is a functionally selective agonist of the α2C receptor subtype over the α2A receptor subtype if the compound's efficacy at the α2C receptor is […] Emax (GTPγS assay) and its efficacy at the α2A receptor is ≦30% Emax (GTPγS assay).

Row | SMILES | Efficacy agonist activity (Emax, GTPγS assay) for α2C: evaluated as active or functionally selective agonist
1 | CNC(=O)N(C)c1ccc2c(c1)N(Cc1c[nH]cn1)CCCO2 [Compound 223] | active or functionally selective agonists of the α2C receptor subtype
2 | COCCOC(=O)N(C)c1ccc2c(n1)N(Cc1c[nH]cn1)CCO2 [Compound 231] | active or functionally selective agonists of the α2C receptor subtype
3 | CNC(=O)N(C)c1cc(Cl)c2c(c1)N(Cc1c[nH]cn1)CCO2 [Compound 232] | active or functionally selective agonists of the α2C receptor subtype
4 | CONC(=O)N(C)c1cc(Cl)c2c(c1)N(Cc1c[nH]cn1)CCO2 [Compound 235] | active or functionally selective agonists of the α2C receptor subtype
5 | CCN(C(=O)NC)c1cc(Cl)c2c(c1)N(Cc1c[nH]cn1)CCO2 [Compound 236] | active or functionally selective agonists of the α2C receptor subtype
6 | CCCN(C(=O)NC)c1ccc2c(c1)N(Cc1c[nH]cn1)CCO2 [Compound 238] | active or functionally selective agonists of the α2C receptor subtype
7 | CNC(=O)N(C)c1cc(C)c2c(c1)N(Cc1c[nH]cn1)CCO2 [Compound 239] | active or functionally selective agonists of the α2C receptor subtype
8 | COC(=O)N(C)c1cc(C)c2c(c1)N(Cc1c[nH]cn1)CCO2 [Compound 240] | active or functionally selective agonists of the α2C receptor subtype
9 | COCC(=O)N(C)c1ccc2c(c1)N(Cc1c[nH]cn1)CCO2 [Compound 242] | active or functionally selective agonists of the α2C receptor subtype
10 | CONC(=O)N(C)c1ccc2c(c1)N(Cc1c[nH]cn1)CCO2 [Compound 243] | active or functionally selective agonists of the α2C receptor subtype
11 | CCN(C(=O)NOC)c1ccc2c(c1)N(Cc1c[nH]cn1)CCO2 [Compound 244] | active or functionally selective agonists of the α2C receptor subtype
12 | CCNC(=O)N(CC)c1ccc2c(c1)N(Cc1c[nH]cn1)CCO2 [Compound 245] | active or functionally selective agonists of the α2C receptor subtype
13 | COCCCOC(=O)Nc1ccc2c(c1)N(Cc1c[nH]cn1)CCO2 [Compound 246] | active or functionally selective agonists of the α2C receptor subtype
14 | N#CCCOC(=O)Nc1ccc2c(c1)N(Cc1c[nH]cn1)CCO2 [Compound 247] | active or functionally selective agonists of the α2C receptor subtype
15 | N#Cc1ccc(COC(=O)Nc2ccc3c(c2)N(Cc2c[nH]cn2)CCO3)cc1 [Compound 248] | active or functionally selective agonists of the α2C receptor subtype
16 | CSCCOC(=O)Nc1ccc2c(c1)N(Cc1c[nH]cn1)CCO2 [Compound 249] | active or functionally selective agonists of the α2C receptor subtype
17 | CS(=O)(=O)CCOC(=O)Nc1ccc2c(c1)N(Cc1c[nH]cn1)CCO2 [Compound 250] | active or functionally selective agonists of the α2C receptor subtype
18 | CCN(C(=O)C#CC1CC1)c1ccc2c(c1)N(Cc1c[nH]cn1)CCO2 [Compound 251] | active or functionally selective agonists of the α2C receptor subtype
19 | N#Cc1cc(Cl)c2c(c1)N(Cc1c[nH]cn1)CCO2 [Compound 253] | active or functionally selective agonists of the α2C receptor subtype

Row | SMILES | Efficacy agonist activity (Emax, GTPγS assay) for α2C: evaluated as active or functionally selective agonist
20 | CCCCOC(=O)N(C)c1ccc2c(c1)N(Cc1c[nH]cn1)CCO2 [Compound 256] | active or functionally selective agonists of the α2C receptor subtype
21 | CCCOC(=O)N(C)c1ccc2c(c1)N(Cc1c[nH]cn1)CCO2 [Compound 257] | active or functionally selective agonists of the α2C receptor subtype
22 | CN(C(=O)CCCOc1ccccc1)c1ccc2c(c1)N(Cc1c[nH]cn1)CCO2 [Compound 259] | active or functionally selective agonists of the α2C receptor subtype
23 | COCCOCC(=O)N(C)c1ccc2c(c1)N(Cc1c[nH]cn1)CCO2 [Compound 260] | active or functionally selective agonists of the α2C receptor subtype
24 | CC#CCOC(=O)N(C)c1ccc2c(c1)N(Cc1c[nH]cn1)CCO2 [Compound 262] | active or functionally selective agonists of the α2C receptor subtype
25 | CCCCCCOC(=O)N(C)c1ccc2c(c1)N(Cc1c[nH]cn1)CCO2 [Compound 263] | active or functionally selective agonists of the α2C receptor subtype
26 | CCCOC(=O)N(CC)c1ccc2c(c1)N(Cc1c[nH]cn1)CCO2 [Compound 264] | active or functionally selective agonists of the α2C receptor subtype
27 | CCCCOC(=O)N(CC)c1ccc2c(c1)N(Cc1c[nH]cn1)CCO2 [Compound 265] | active or functionally selective agonists of the α2C receptor subtype
28 | C=CCS(=O)(=O)Nc1ccc2c(c1)N(Cc1c[nH]cn1)CCO2 [Compound 266] | active or functionally selective agonists of the α2C receptor subtype
29 | CCCOC(=O)Nc1ccc2c(c1)N(Cc1c[nH]cn1)CCO2 [Compound 271] | active or functionally selective agonists of the α2C receptor subtype
30 | CCCCOC(=O)Nc1ccc2c(c1)N(Cc1c[nH]cn1)CCO2 [Compound 272] | active or functionally selective agonists of the α2C receptor subtype
31 | CCCCCCNC(=O)N(C)c1ccc2c(c1)N(Cc1c[nH]cn1)CCO2 [Compound 273] | active or functionally selective agonists of the α2C receptor subtype
32 | CCN(C(=O)NCc1ccco1)c1ccc2c(c1)N(Cc1c[nH]cn1)CCO2 [Compound 274] | active or functionally selective agonists of the α2C receptor subtype
33 | CCN(C(=O)OCc1cccnc1)c1ccc2c(c1)N(Cc1c[nH]cn1)CCO2 [Compound 275] | active or functionally selective agonists of the α2C receptor subtype
34 | CCN(C(=O)OCc1ccncc1)c1ccc2c(c1)N(Cc1c[nH]cn1)CCO2 [Compound 276] | active or functionally selective agonists of the α2C receptor subtype
35 | CCN(C(=O)OCc1cc(C)on1)c1ccc2c(c1)N(Cc1c[nH]cn1)CCO2 [Compound 278] | active or functionally selective agonists of the α2C receptor subtype
36 | CCN(C(=O)OCc1ccncc1N)c1ccc2c(c1)N(Cc1c[nH]cn1)CCO2 [Compound 279] | active or functionally selective agonists of the α2C receptor subtype
37 | CCN(C(=O)NCc1ccccc1)c1ccc2c(c1)N(Cc1c[nH]cn1)CCO2 [Compound 280] | active or functionally selective agonists of the α2C receptor subtype
38 | CCN(C(=O)OCc1cnc(N)nc1)c1ccc2c(c1)N(Cc1c[nH]cn1)CCO2 [Compound 281] | active or functionally selective agonists of the α2C receptor subtype
